# Residues, ends and D or L forms follow the SMILES beside them. No end group written: not given here. *: point of attachment. Cbz = O=C(OCc1ccccc1)*
# Columns and labels:
# [1] = system: TBK1 in HaCaT cells; assay: TBK1 protein level and ubiquitination (Western blotting, IP); assay type: cell-based, human
# Source text: Here, we further explored whether and how RIFSP‐2 decreased the protein level of TBK1 in HaCaT cells. […] Since the degradation of TBK1 protein was reported to be regulated by either ubiquitination mediated proteasome pathway^[ [33] ^] or chaperone‐mediated autophagy signaling,^[ [34] ^] we testified the influence of the protein synthesis inhibitor (CHX) and the proteasome inhibitor (MG132) in RIFSP‐2 treated HaCaT cells. […] Then we analyzed the colocalization of TBK1 and lysosomes through confocal immunofluorescence microscopy assays. Although, administration of RIFSP‐2 induced a transient decrease of TBK1 fluorescence intensity (Figure S5K,L, Supporting Information), the co‐localization assays didn't support the increase of TBK1 location in lysosomes in RIFSP‐2 treated HaCaT cells (Figure S5M, Supporting Information).
# Fig. S5 Influence of RIFSP-2 on STING activation and TBK1 expression in HaCaT […]
# Communities classified based on the association network of the different metabolites in irradiated cells treated with or without RIFSP -2. (B) Structural character analysis of the lipid metabolites in irradiated cells treated with or without RIFSP -2. (C) Dose dependent induction of phosphorylation of STING and downstream TBK1 detected through western blotting. […] (M) Pearson correlation coefficient was calculated through Image J to explore the colocalization between TBK1 and […]
# [2] = system: WS1 cells; assay: Intracellular uptake of FITC-labeled peptides (confocal microscopy, flow cytometry); assay type: cell-based
# Source text: (§1) Distinct from previous reports, the RIFSPs were obtained from skin tissue crude extracts but not from skin secretions. In addition, the administration of exogenous RIFSPs protected cultured skin cells, which hints that some RIFSPs may exert membrane permeability. Therefore, we synthesized FITC‐labeled RIFSPs‐2/5/9/10 and evaluated their possible intracellular uptake by skin cells. […] Glycosaminoglycans have been reported to affect the efficiency of cellular uptake of a wide range of cell penetrating peptides,^[ [27] ^] and we therefore used the competitive inhibitor heparin to investigate whether internalization of FITC‐RIFSP‐2 was dependent on recognition by glycosaminoglycans on the cell surface.
# After forming electrostatic interactions with the plasma membrane, peptides principally penetrate into cells via macropinocytosis.^[ [28] ^] […]
# (A) Administration of FITC-labeled RIFSPs to WS1 cells and identification of the membrane […] of RIFSP-2 through confocal microscopy. (B)Time- and dose-dependent uptake of FITC-RIFSP-2 by WS1 cells detected through confocal microscopy and flow cytometry analysis. […] Conditioned medium from WS1 cells pretreated with RIFSP-2 increased MMP of irradiated HaCaT cells and vice versa, detected by JC-1(G and H) and Mito-Tracker Red CMXRos (I) staining (n = 4, ** P < 0.01).
# [3] = system: HaCaT cells; assay: as above; assay type: cell-based
# Source text: as §1
# Figure 2 Macropinocytosis‐mediated uptake of radiation‐induced frog skin peptide 2 (RIFSP‐2) protects skin cells against radiation‐induced injury. […] B) Time‐ and dose‐dependent uptake of FITC‐RIFSP‐2 by HaCaT cells detected through flow cytometry analysis. […] The effect of RIFSP‐2 on D) cell proliferation, E) cell cycle, and F,G) senescence, as detected by colony formation assay, propidium iodide (PI) staining and SA‐β‐Gal staining analysis, respectively. […] M) Effect of RIFSP‐2 on the homeostasis of actin filaments in irradiated skin cells, as detected by rhodamine phalloidin and G‐actin staining assays. […]
# [4] = system: skin tissues of mice; settings: mouse, in vivo, sc
# [5] = system: STING signaling in HaCaT cells; assay: STING downstream signals and inflammatory factors with LPC (18:1) (Western blotting, ELISA); assay type: cell-based, human
# Experimental: Since RIFSP‐2 directly restrained SCD1 and modulated neutral lipid droplets, we further investigated whether alteration of lipid profiles by RIFSP‐2 interfered with STING activation in response to irradiation. […] Furthermore, we investigated the influence of RIFSP‐2 on STING‐regulated inflammatory factors, including IFN‐β, TNF‐α, IL‐1, and IL‐6. […] Nevertheless, significant increase of IFN‐β production in acute stage and TNF‐α production in relative late stage (48 h) in macrophage cells were detected through both Western blotting and ELISA assays (Figure 4F,G).
# 2.6 Protein-protein interaction analysis
# The identified databases of specific binding proteins for RIFSP-2 and STING in irradiated skin cells were merged and the confidence score of interactions >0.7 were regarded as high confidence in alinement of STRING database. Finally, the visualization of this protein-protein interaction was realized through the Cytoscape software.
# 2.7 Assessment of cytokines by Elisa
# HaCaT and RAW264.7 cells were cultivated in 6 cm plates at a density of 5 × 10^5 cells/mL with 2 mL medium per well and treated with LPC (18:1) plus RIFSP-2 for 24 h. 6 or 48 h after irradiation, cytokine concentrations in the […] were measured by ELISA according to the instructions provided by the manufacturer (NEOBIOSCIENCE). The absorbance was detected using a BioTek reader (Synergy HTX, Winooski, USA) at 450 nm. […]
compound,measurement,setting,value
"CCN(CC)CCCC(C)Nc1ccnc2cc(Cl)ccc12 (stereo not drawn) [CQ, chloroquine]",influence on TBK1 degradation caused by RIFSP-2,"[1]; 10 nM chloroquine 4 hours, then 15 µM RIFSP-2 24 hours",little influence of lysosomes in TBK1 degradation
"C=C1[C@@H](C)[C@H]2[C@H](Cc3ccccc3)NC(=O)[C@]23[C@H](OC(C)=O)/C=C/[C@@](C)(O)C(=O)[C@@H](C)C/C=C/[C@H]3[C@@H]1O [CytD, cytochalasin D]",effect on WS1 cells,[2]; after CytD administration in the uptake study,swelled and subsequently died in 30 min
CC(C)C[C@@H](C=O)NC(=O)[C@H](CC(C)C)NC(=O)[C@H](CC(C)C)NC(=O)OCc1ccccc1 [MG132] (Cbz-Leu-Leu-Leu-aldehyde),influence on the reduction of TBK1 protein level by RIFSP-2,"[1]; 24 h after RIFSP-2 treatment (15 µM), MG132 10 µM pretreated 2 hours",abrogated the reduction of TBK1 protein level
LAAGGYDVDKNNSRLK [RIFSP‐2],uptake in HaCaT cells,[3],time‐ and dose‐dependent manner
same,time at which the FITC signal could be detected,[2],as soon as one hour after administration
same,adverse effects,[4],did not cause obvious adverse effects
same,histological examination of the skin tissues,[4],no significant differences
LPC (18:1),"accumulation of TGF-β, TNF-α, IL-1 and IL-6","[5]; keratinocytes but not macrophage cells, Western blotting",aggravated the accumulation
same,phosphorylation of STING and TBK1,"[5]; supplementation, dose-dependent manner (Figure S5C)",elevated the phosphorylation of both STING and its substrate TBK1
